# Source: patent publication US5202315A, “Cephalosporin compounds” (Lucky, Ltd., priority 1989, dated 1993)
# How the values were obtained:
# Assay in all cases: Antibacterial activity, MIC
# Assay type in all cases: cell-based
# [1] = tested on: Streptococcus faecalis ATCC 29212; conditions: Enterococcus faecalis, ATCC29212; ATCC 29212; agar two-fold dilution, 37° C., 20 hours; read-out: MIC
# How it was run: (§1)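 MIC by two-fold serial dilution in Mueller-Hinton agar; inoculum 2 μl at 10^7 CFU/ml; 37 °C, 20 h.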
# [2] = tested on: Staphylococcus aureus ATCC 6538p; conditions: ATCC6538P, ATCC 6538p, agar two-fold dilution, 37° C., 20 hours, read-out: MIC
# How it was run: as §1
# [3] = tested on: Shigella sonnei ATCC 11060; conditions: ATCC11060, ATCC 11060, agar two-fold dilution, 37° C., 20 hours, read-out: MIC
# How it was run: as §1
# [4] = tested on: Morganella morganii ATCC 8076h; conditions: ATCC8076H, agar two-fold dilution, 37° C., 20 hours
# How it was run: as §1
# [5] = tested on: Providencia rettgeri ATCC 9250; conditions: ATCC9250, agar two-fold dilution, 37° C., 20 hours
# How it was run: as §1
# [6] = tested on: Salmonella typhimurium ATCC 14028; conditions: Salmonella enterica; ATCC 14028; agar two-fold dilution, 37° C., 20 hours; read-out: MIC
# How it was run: as §1
# [7] = tested on: Escherichia coli ATCC 25922; conditions: ATCC25922, agar two-fold dilution, 37° C., 20 hours
# How it was run: as §1
# [8] = tested on: Bacillus cereus ATCC 11778; conditions: ATCC11778, ATCC 11778, agar two-fold dilution, 37° C., 20 hours, read-out: MIC
# How it was run: as §1
# [9] = tested on: Pseudomonas aeruginosa ATCC 10145; conditions: ATCC10145, ATCC 10145, agar two-fold dilution, 37° C., 20 hours, read-out: MIC
# How it was run: as §1
# [10] = tested on: Bacillus megaterium ATCC 9885; conditions: Priestia megaterium, ATCC9885; ATCC 9885; agar two-fold dilution, 37° C., 20 hours; read-out: MIC
# How it was run: as §1
# [11] = tested on: Shigella flexneri ATCC 11836; conditions: ATCC11836, agar two-fold dilution, 37° C., 20 hours
# How it was run: as §1
# [12] = tested on: Staphylococcus epidermidis ATCC 12228; conditions: ATCC12228, ATCC 12228, agar two-fold dilution, 37° C., 20 hours, read-out: MIC
# How it was run: as §1
# [13] = tested on: Citrobacter freundii ATCC 8090; conditions: ATCC8090, ATCC 8090, agar two-fold dilution, 37° C., 20 hours, read-out: MIC
# How it was run: as §1
# [14] = tested on: Proteus mirabilis ATCC 25933; conditions: ATCC25933, ATCC 25933, agar two-fold dilution, 37° C., 20 hours, read-out: MIC
# How it was run: as §1
# [15] = tested on: Staphylococcus aureus ATCC 10537; conditions: ATCC10537, ATCC 10537, agar two-fold dilution, 37° C., 20 hours, read-out: MIC
# How it was run: as §1
# [16] = tested on: Micrococcus luteus ATCC 9341; conditions: ATCC9341, ATCC 9341, agar two-fold dilution, 37° C., 20 hours, read-out: MIC
# How it was run: as §1
# [17] = tested on: Pseudomonas aeruginosa ATCC 25619; conditions: ATCC25619, ATCC 25619, agar two-fold dilution, 37° C., 20 hours, read-out: MIC
# How it was run: as §1
# [18] = tested on: Pseudomonas aeruginosa ATCC 27853; conditions: ATCC27853, ATCC 27853, agar two-fold dilution, 37° C., 20 hours, read-out: MIC
# How it was run: as §1
# [19] = tested on: Serratia marcescens ATCC 27117; conditions: ATCC27117, ATCC 27117, agar two-fold dilution, 37° C., 20 hours, read-out: MIC
# How it was run: as §1
# [20] = tested on: Escherichia coli ATCC 10536; conditions: ATCC10536, agar two-fold dilution, 37° C., 20 hours
# How it was run: as §1
# [21] = tested on: Enterobacter aerogenes ATCC 29751; conditions: Klebsiella aerogenes, ATCC29751; ATCC 29751; agar two-fold dilution, 37° C., 20 hours; read-out: MIC
# How it was run: as §1
# [22] = tested on: Acinetobacter calcoaceticus ATCC 15473; conditions: ATCC15473, ATCC 15473, agar two-fold dilution, 37° C., 20 hours, read-out: MIC
# How it was run: as §1
# [23] = tested on: Klebsiella pneumoniae ATCC 10031; conditions: ATCC10031, ATCC 10031, agar two-fold dilution, 37° C., 20 hours, read-out: MIC
# How it was run: as §1
# [24] = tested on: Enterobacter cloacae ATCC 27508; conditions: ATCC27508, ATCC 27508, agar two-fold dilution, 37° C., 20 hours, read-out: MIC
# How it was run: as §1
# [25] = tested on: Proteus vulgaris ATCC 6059; conditions: ATCC6059, ATCC 6059, agar two-fold dilution, 37° C., 20 hours, read-out: MIC
# How it was run: as §1
Compound,MIC [1] [µg/mL],MIC [2] [µg/mL],MIC [3] [µg/mL],MIC [4] [µg/mL],MIC [5] [µg/mL],MIC [6] [µg/mL],MIC [7] [µg/mL],MIC [8] [µg/mL],MIC [9] [µg/mL],MIC [10] [µg/mL],MIC [11] [µg/mL],MIC [12] [µg/mL],MIC [13] [µg/mL],MIC [14] [µg/mL],MIC [15] [µg/mL],MIC [16] [µg/mL],MIC [17] [µg/mL],MIC [18] [µg/mL],MIC [19] [µg/mL],MIC [20] [µg/mL],also measured
CCCC[n+]1c(N)cc(N)nc1SCC1=C(C(=O)[O-])N2C(=O)C(NC(=O)/C(=N\OC(C)(C)C(=O)O)c3nsc(N)n3)C2SC1 (centres unmarked) [Compound I-29],> 128,8,0.5,0.016,≤ 0.008,0.5,0.25,128,8,0.25,0.13,8,0.25,1,4,0.5,4,2,0.5,0.25,MIC [21]: 1 µg/mL; MIC [22]: 32 µg/mL; MIC [23]: 0.13 µg/mL; MIC [24]: 0.063 µg/mL; MIC [25]: 1 µg/mL
CC(C)(O/N=C(\C(=O)NC1C(=O)N2C(C(=O)[O-])=C(CSc3nc(N)cc(N)[n+]3-c3ccccc3)CSC12)c1csc(N)n1)C(=O)O (centres unmarked) [Compound I-35],> 128,4,0.25,≤ 0.008,0.031,0.5,0.25,16,4,0.5,0.13,2,0.25,0.25,2,0.25,2,2,0.5,0.25,MIC [21]: 0.5 µg/mL; MIC [22]: 16 µg/mL; MIC [23]: 0.13 µg/mL; MIC [24]: 0.063 µg/mL; MIC [25]: 0.13 µg/mL
CC(C)(O/N=C(\C(=O)NC1C(=O)N2C(C(=O)[O-])=C(CSc3nc(N)cc(N)[n+]3-c3ccc(O)cc3)CSC12)c1csc(N)n1)C(=O)O (centres unmarked) [Compound I-36],> 128,4,0.25,≤ 0.008,≤ 0.008,0.5,0.25,32,2,0.13,0.063,2,0.25,0.13,2,0.25,1,1,0.5,0.25,MIC [21]: 2 µg/mL; MIC [22]: 16 µg/mL; MIC [23]: 0.13 µg/mL; MIC [24]: 0.063 µg/mL; MIC [25]: 0.13 µg/mL
CCO/N=C(\C(=O)NC1C(=O)N2C(C(=O)[O-])=C(CSc3nc(N)cc(N)[n+]3-c3ccc(Cl)cc3)CSC12)c1csc(N)n1 (centres unmarked) [Compound I-40],32,0.5,0.5,0.016,≤ 0.008,2,0.5,16,16,0.063,0.25,0.13,1,0.5,0.25,0.016,2,8,1,0.5,MIC [21]: 2 µg/mL; MIC [22]: 16 µg/mL; MIC [23]: 0.031 µg/mL; MIC [24]: 0.13 µg/mL; MIC [25]: 0.5 µg/mL
COc1cccc(OC)c1-[n+]1c(N)cc(N)nc1SCC1=C(C(=O)[O-])N2C(=O)C(NC(=O)/C(=N\OC(C)(C)C(=O)O)c3csc(N)n3)C2SC1 (centres unmarked) [Compound I-43],> 128,4,0.5,0.031,0.031,2,0.5,32,8,0.25,0.25,2,1,0.5,2,0.25,4,4,2,0.5,MIC [21]: 2 µg/mL; MIC [22]: 32 µg/mL; MIC [23]: 0.25 µg/mL; MIC [24]: 0.25 µg/mL; MIC [25]: 0.5 µg/mL
